Experimental data from patent US6909000B2, “Bridged bicyclic serine protease inhibitors” (Vertex Pharmaceuticals Incorporated, priority 2001, dated 2005).
Like-named read-outs stand apart in the source and are kept apart here.

Assays:
HCV NS3-NS4A protease = HCV NS3-NS4A protease (Hepatitis C virus genotype 1a, UniProt P27958); assay: Ki determination, HPLC microbore assay with 5AB peptide substrate, tNS3 and KK4A cofactor; assay type: biochemical
Procedure: The Ki determinations were performed as follows. The Ki values for some compounds of the present invention are recited above in Table 1.
HPLC Microbore Method for Separation of 5AB Substrate and Products Substrate
NH2-Glu-Asp-Val-Val-(alpha)Abu-Cys-Ser-Met-Ser-Tyr-COOH Stock solution of 20 mM 5AB was made in DMSO w/0.2M DTT. This was stored in aliquots at −20 C.
Buffer: 50 mM HEPES, pH 7.8; 20% glycerol; 100 mM NaCl Total assay volume was 200 μL
The buffer was combined with KK4A, DTT, and tNS3; 177 μL of this solution was distributed each into wells of 96 well plate and incubated at 30° C. for ˜5-10 min. 3 μL of appropriate concentration of test compound dissolved in DMSO (DMSO only for control) was added to each well and incubate at 30° C. for 15 min. Reaction was initiated by addition of 20 μL of 200 μM 5AB substrate (20 μM concentration is equivalent or slightly lower than the Km for 5AB) and incubated for 20 min at 30° C. The reaction was terminated by addition of 50 μL of 10% TFA 200 μL aliquots were transferred to HPLC vials The SMSY product was isolated from substrate and KK4A by the method which follows. Microbore Separation Method • Instrumentation: • Hewlett Packard 1100 • Degasser G1322A • Binary pump G1312A • Autosampler G1313A • Column themostated chamber G1316A • Diode array detector G1315A • Column: Phenomenex Jupiter; 5 micron C18; 300 angstroms; • 150×2 mm; P/O 00F-4053-B0 • Column thermostat: 40° C. • Injection volume: 100 μL • Solvent A=HPLC grade water+0.1% TFA • Solvent B=HPLC grade acetonitrile+0.1% TFA
• Stop time: 17 min • Post-run time: 10 min

[1] = tested on: Cells containing hepatitis C virus (HCV) replicon; assay: HCV replicon cell assay, Taqman real-time RT-PCR of HCV RNA level; assay type: cell-based; details: read-out: IC50 (concentration at which 50% inhibition of HCV RNA level is observed)
Procedure: As set forth above, the compounds of this invention are capable of inhibiting the activity of HCV NS3-NS4A protease. In order to quantitate the activity of the compounds of this invention, cells containing HCV replicon were incubated with the compounds of this invention, and a Taqman Real Time PCR assay was conducted to determine the percentage inhibition of HCV RNA level and the IC50 were calculated therefrom. The result are shown below in Table 1:
Cells containing hepatitis C virus (HCV) replicon were maintained in DMEM containing 10% fetal bovine serum (FBS), 0.25 mg per ml of G418, with appropriate supplements (media A).
On day 1, replicon cell monolayer was treated with a trypsin:EDTA mixture, removed, and then dilutedh media A into a final concentration of 100,000 cells per ml wit. 10,000 cells in 100 ul are plated into each well of a 96-well tissue culture plate, and culture overnight in a tissue culture incubator at 37° C.
On day 2, compounds (in 100% DMSO) were serially diluted into DMEM containing 2% FBS, 0.5% DMSO, with appropriate supplements (media B). The final concentration of DMSO was maintained at 0.5% throughout the dilution series.
The media on the replicon cell monolayer was removed, and then media B containing various concentrations of compounds was added. Media B without any compound was added to other wells as no compound controls.
Cells were incubated with compound or 0.5% DMSO in media B for 48 hours in a tissue culture incubator at 37° C.
At the end of the 48-hour incubation, the media was removed, and the replicon cell monolayer was washed once with PBS and stored at −80° C. prior to RNA extraction.
Culture plates with treated replicon cell monolayers were thawed, and a fixed amount of another RNA virus, such as Bovine Viral Diarrhea Virus (BVDV) was added to cells in each well. RNA extraction reagents (such as reagents from RNeasy kits) were added to the cells immediately to avoid degradation of RNA. Total RNA was extracted according the instruction of manufacturer with modification to improve extraction efficiency and consistency. Finally, total cellular RNA, including HCV replicon RNA, was eluted and stored at −80° C. until further processing.
A Taqman real-time RT-PCR quantification assay was set up with two sets of specific primers and probe. One was for HCV and the other was for BVDV. Total RNA extractants from treated HCV replicon cells were added to the PCR reactions for quantification of both HCV and BVDV RNA in the same PCR well. Experimental failure was flagged and rejected based on the level of BVDV RNA in each well. The level of HCV RNA in each well was calculated according to a standard curve that is run in the same PCR plate. The percentage of inhibition or decrease of HCV RNA level due to compound treatment was calculated using the DMSO or no compound control as 0% of inhibition. The IC50 (concentration at which 50% inhibition of HCV RNA level is observed) was calculated from the titration curve of any given compound.

[2] = 25 nM tNS3, 25 μM KK4A, 20 μM 5AB substrate, 30° C., pH 7.8, read-out: Ki
[3] = HCV replicon cells, 48 hours incubation, 2% FBS, 0.5% DMSO

Chain of HCV NS3-NS4A protease (P27958 1027-1208, other chains not shown): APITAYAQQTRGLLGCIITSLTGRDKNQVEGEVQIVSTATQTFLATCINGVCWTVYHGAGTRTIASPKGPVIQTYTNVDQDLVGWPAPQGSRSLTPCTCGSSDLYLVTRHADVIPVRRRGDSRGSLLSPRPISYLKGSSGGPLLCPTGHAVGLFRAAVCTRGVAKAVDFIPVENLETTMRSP

SMILES | Ki (HCV NS3-NS4A protease; [2]) | IC50 ([1]; 48 h) | Ki (HCV NS3-NS4A protease) | IC50 [1, 3]
CCC[C@H](NC(=O)[C@@H]1[C@H]2CC[C@H](C2)N1C(=O)[C@@H](NC(=O)[C@@H](NC(=O)c1cnccn1)C1CCCCC1)C(C)C)C(=O)C(=O)NC1CC1 [Cmpd 1] | 220 nM | > 1000 nM |  | 
CCC[C@H](NC(=O)C1[C@H]2CC[C@H](C2)N1C(=O)[C@@H](NC(=O)[C@@H](NC(=O)c1cnccn1)C1CCCCC1)C(C)(C)C)C(=O)C(=O)NC1CC1 (some centres unmarked) [Cmpd 2] |  |  | 90 nM | 886 nM
CC(C)(C)[C@H](NC(=O)[C@@H](NC(=O)c1cnccn1)C1CCCCC1)C(=O)N1C(C(=O)NC(CC(F)F)C(=O)C(=O)NC2CC2)[C@H]2CC[C@@H]1C2 (some centres unmarked) [Cmpd 3] |  |  | 63 nM | 632 nM
CCCC(NC(=O)[C@@H]1[C@H]2CC[C@H](C2)N1C(=O)[C@@H](NC(=O)[C@@H](NC(=O)[C@H](CNC(=O)OC)NC(=O)OC)C1CCCCC1)C(C)C)C(=O)C(=O)NC1CC1 (some centres unmarked) [Cmpd 4] |  |  | 95 nM | > 10000 nM
CCCC(NC(=O)[C@@H]1[C@H]2CC[C@H](C2)N1C(=O)[C@@H](NC(=O)[C@@H](NC(=O)[C@H](CNC(=O)OC)NC(=O)OC)C1CCCCC1)C(C)(C)C)C(=O)C(=O)NC1CC1 (some centres unmarked) [Cmpd 5] |  |  | 39 nM | 1410 nM
CCCC(NC(=O)[C@@H]1[C@H]2CC[C@H](C2)N1C(=O)[C@@H](NC(=O)[C@@H](NC(=O)[C@H](CNC(=O)OC)NC(=O)OC)C1CCCCC1)C(C)C)C(=O)C(=O)N[C@@H](C)c1ccccc1 (some centres unmarked) [Cmpd 6] |  |  | 96 nM | 2650 nM
CCCC(NC(=O)[C@@H]1[C@H]2CC[C@H](C2)N1C(=O)[C@@H](NC(=O)[C@@H](NC(=O)[C@H](CNC(=O)OC)NC(=O)OC)C1CCCCC1)C(C)(C)C)C(=O)C(=O)N[C@@H](C)c1ccccc1 (some centres unmarked) [Cmpd 7] |  |  | 49 nM | 449 nM
CCCC(NC(=O)[C@@H]1[C@H]2CC[C@H](C2)N1C(=O)[C@@H](NC(=O)[C@@H](NC(=O)c1cnccn1)C1CCCCC1)C(C)(C)C)C(=O)C(=O)N[C@@H](C)c1ccccc1 (some centres unmarked) [Cmpd 8] |  |  | 110 nM | 679 nM
CCC[C@H](NC(=O)[C@@H]1[C@H]2CC[C@H](C2)N1C(=O)[C@@H](NC(=O)[C@@H](NC(=O)[C@H](C)NS(C)(=O)=O)C1CCCCC1)C(C)(C)C)C(=O)C(=O)NC1CC1 [Cmpd 9] | 55 nM | 4310 nM |  | 
C[C@H](NS(C)(=O)=O)C(=O)N[C@H](C(=O)N[C@H](C(=O)N1[C@@H]2CC[C@@H](C2)[C@H]1C(=O)N[C@@H](CC(F)F)C(=O)C(=O)NC1CC1)C(C)(C)C)C1CCCCC1 [Cmpd 10] |  |  | 28 nM | 10000 nM
CCCC(NC(=O)[C@@H]1[C@H]2CC[C@H](C2)N1C(=O)[C@@H](NC(=O)[C@@H](NC(=O)[C@H](C)NS(C)(=O)=O)C1CCCCC1)C(C)(C)C)C(=O)C(=O)N[C@@H](C)c1ccccc1 (some centres unmarked) [Cmpd 11] | 50 nM | 1230 nM |  | 
CCC[C@H](NC(=O)[C@@H]1[C@H]2CC[C@H](C2)N1C(=O)[C@@H](NC(=O)[C@@H](NC(=O)c1ncc[nH]1)C1CCCCC1)C(C)(C)C)C(=O)C(=O)N[C@@H](C)c1ccccc1 [Cmpd 12] |  |  | 68 nM | 412 nM
CCC[C@H](NC(=O)[C@@H]1[C@H]2CC[C@H](C2)N1C(=O)[C@@H](NC(=O)[C@@H](NC(=O)c1ncc[nH]1)C1CCCCC1)C(C)(C)C)C(=O)C(=O)NC1CC1 [Cmpd 13] |  |  | 42 nM | 251 nM
CCC[C@H](NC(=O)[C@@H]1[C@H]2CC[C@H](CC2)N1C(=O)C(NC(=O)[C@@H](NC(=O)c1cnccn1)C1CCCCC1)C(C)(C)C)C(=O)C(=O)NC1CC1 (some centres unmarked) [Cmpd 14] |  |  | 125 nM | 1240 nM
CCC[C@H](NC(=O)[C@@H]1[C@H]2CC[C@H](C2)N1C(=O)[C@@H](NC(=O)[C@@H](NC(=O)[C@H](C)NC(=O)C(C)(C)C)C1CCCCC1)C(C)(C)C)C(=O)C(=O)NC1CC1 [Cmpd 15] |  |  | 66 nM | 1300 nM
CCC[C@H](NC(=O)[C@@H]1[C@H]2CC[C@H](C2)N1C(=O)[C@@H](NC(=O)[C@@H](NC(=O)c1[nH]c(C)c(C)c1C(C)=O)C1CCCCC1)C(C)(C)C)C(=O)C(=O)NC1CC1 [Cmpd 16] |  |  | 54 nM | < 100 nM
